# US10759766B2, “Certain chemical entities, compositions, and methods” (NeuPharma, Inc., priority 2011, dated 2020)
# Experiments:
# [1] = system: A549 cells; assay: Inhibition of cancer cell growth, MTT assay, A549; assay type: cell-based; conditions: Homo sapiens, A549, 72 h exposure
# How it was run: (§1)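 IC50 derived from percent growth inhibition versus concentration, tested in triplicate. Growth inhibition came from MTT read at 570 nm after 72 h drug exposure, relative to viable cells at dosing. Cells (about 4000/well, RPMI 1640 + 10% FBS) adhered 24 h before treatment; final DMSO 1%.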
# [2] = system: A375 cells; assay: Inhibition of cancer cell growth, MTT assay, A375; assay type: cell-based; conditions: Homo sapiens, A-375, 72 h exposure
# How it was run: as §1
# [3] = biological target: BRAF V600E (Homo sapiens (Human), UniProt P15056, V600E); assay: Z′-LYTE kinase inhibition assay (Invitrogen), BRAF V600E; assay type: biochemical; conditions: Z′-LYTE method; for inhibition at 1 µM: 1 μM compound, read-out: % inhibition at 1 μM against BRAF V600E
# Sequence of BRAF V600E (P15056 whole entry V600E): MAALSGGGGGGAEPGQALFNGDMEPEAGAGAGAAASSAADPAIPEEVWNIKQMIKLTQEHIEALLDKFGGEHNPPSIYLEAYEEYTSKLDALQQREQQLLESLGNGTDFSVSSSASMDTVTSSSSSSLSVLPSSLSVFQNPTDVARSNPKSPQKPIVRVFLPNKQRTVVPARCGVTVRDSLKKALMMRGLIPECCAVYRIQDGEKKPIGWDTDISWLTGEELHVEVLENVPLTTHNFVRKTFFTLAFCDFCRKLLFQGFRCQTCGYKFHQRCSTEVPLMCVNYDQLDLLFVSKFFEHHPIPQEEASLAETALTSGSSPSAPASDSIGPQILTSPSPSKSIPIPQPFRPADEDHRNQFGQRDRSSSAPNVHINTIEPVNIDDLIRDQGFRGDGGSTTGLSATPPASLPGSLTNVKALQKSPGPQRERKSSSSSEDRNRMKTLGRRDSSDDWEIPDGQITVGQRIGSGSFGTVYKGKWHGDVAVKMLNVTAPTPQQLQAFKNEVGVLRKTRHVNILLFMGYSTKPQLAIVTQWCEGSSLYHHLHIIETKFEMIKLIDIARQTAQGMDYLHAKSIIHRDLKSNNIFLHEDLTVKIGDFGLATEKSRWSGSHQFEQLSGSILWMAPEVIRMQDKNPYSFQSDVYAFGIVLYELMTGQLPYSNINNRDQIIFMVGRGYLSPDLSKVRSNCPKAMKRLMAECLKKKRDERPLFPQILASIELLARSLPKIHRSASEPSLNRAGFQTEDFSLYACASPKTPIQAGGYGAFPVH
# How it was run: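 FRET-based Z′-LYTE peptide phosphorylation format in 50 mM HEPES pH 7.5, 0.01% BRIJ-35, 10 mM MgCl2, 1 mM EGTA with ATP. Kinase reaction 60 min at room temperature, then protease development step 60 min at room temperature before fluorescence read. IC50 from compound concentration versus percent inhibition.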
# [4] = biological target: BRAF (Homo sapiens (Human), UniProt P15056); assay: Z′-LYTE kinase inhibition assay (Invitrogen), BRAF; assay type: biochemical; conditions: 1 μM compound, Z′-LYTE method; read-out: % inhibition at 1 μM against BRAF
# Sequence of BRAF (P15056 whole entry): as the sequence (P15056 whole entry V600E) above, with E600V counted along it
# Protocol: Inhibitory activities Inhibitory activities of compounds against BRAF, and BRAF V600E were measured by Invitrogen using Z′-LYTE® Method as briefly described in the following. 4× Test compounds are dissolved in 1% DMSO. […] ATP solutions are diluted to a 4×ATP working concentration in Kinase Buffer (50 mM HEPES pH 7.5, 0.01% BRIJ-35, 10 mM MgCl2, 1 mM EGTA). Reaction started by 30-second shaking of mixture consisting of 2.5 μL 4× test compound, […] and 2.5 μL 4×ATP Solution on Bar-coded Corning, low volume NBS, black 384-well plate (Corning Cat. #3676). Then the mixture was incubated for 60-minute at room temperature for the kinase reaction, followed by addition of 5 μL of a 1:1024 dilution of development reagent A and 30-second plate shake. The mixture was then incubated for another 60-minute at room temperature for development reaction. Fluorescence was read by plate reader. IC50 was calculated by plotting the concentration of compound vs the percentage of inhibition in treated wells using GraphPad Prism 5.
# [5] = biological target: KDR (VEGFR2) (Homo sapiens (Human), UniProt P35968); assay: Z′-LYTE kinase inhibition assay (Invitrogen), KDR; assay type: biochemical; conditions: Z′-LYTE method; for inhibition at 1 µM: 1 μM compound, read-out: % inhibition at 1 μM against KDR; for IC50: read-out: IC50 against KDR
# Sequence of KDR (VEGFR2) (P35968 20-1356): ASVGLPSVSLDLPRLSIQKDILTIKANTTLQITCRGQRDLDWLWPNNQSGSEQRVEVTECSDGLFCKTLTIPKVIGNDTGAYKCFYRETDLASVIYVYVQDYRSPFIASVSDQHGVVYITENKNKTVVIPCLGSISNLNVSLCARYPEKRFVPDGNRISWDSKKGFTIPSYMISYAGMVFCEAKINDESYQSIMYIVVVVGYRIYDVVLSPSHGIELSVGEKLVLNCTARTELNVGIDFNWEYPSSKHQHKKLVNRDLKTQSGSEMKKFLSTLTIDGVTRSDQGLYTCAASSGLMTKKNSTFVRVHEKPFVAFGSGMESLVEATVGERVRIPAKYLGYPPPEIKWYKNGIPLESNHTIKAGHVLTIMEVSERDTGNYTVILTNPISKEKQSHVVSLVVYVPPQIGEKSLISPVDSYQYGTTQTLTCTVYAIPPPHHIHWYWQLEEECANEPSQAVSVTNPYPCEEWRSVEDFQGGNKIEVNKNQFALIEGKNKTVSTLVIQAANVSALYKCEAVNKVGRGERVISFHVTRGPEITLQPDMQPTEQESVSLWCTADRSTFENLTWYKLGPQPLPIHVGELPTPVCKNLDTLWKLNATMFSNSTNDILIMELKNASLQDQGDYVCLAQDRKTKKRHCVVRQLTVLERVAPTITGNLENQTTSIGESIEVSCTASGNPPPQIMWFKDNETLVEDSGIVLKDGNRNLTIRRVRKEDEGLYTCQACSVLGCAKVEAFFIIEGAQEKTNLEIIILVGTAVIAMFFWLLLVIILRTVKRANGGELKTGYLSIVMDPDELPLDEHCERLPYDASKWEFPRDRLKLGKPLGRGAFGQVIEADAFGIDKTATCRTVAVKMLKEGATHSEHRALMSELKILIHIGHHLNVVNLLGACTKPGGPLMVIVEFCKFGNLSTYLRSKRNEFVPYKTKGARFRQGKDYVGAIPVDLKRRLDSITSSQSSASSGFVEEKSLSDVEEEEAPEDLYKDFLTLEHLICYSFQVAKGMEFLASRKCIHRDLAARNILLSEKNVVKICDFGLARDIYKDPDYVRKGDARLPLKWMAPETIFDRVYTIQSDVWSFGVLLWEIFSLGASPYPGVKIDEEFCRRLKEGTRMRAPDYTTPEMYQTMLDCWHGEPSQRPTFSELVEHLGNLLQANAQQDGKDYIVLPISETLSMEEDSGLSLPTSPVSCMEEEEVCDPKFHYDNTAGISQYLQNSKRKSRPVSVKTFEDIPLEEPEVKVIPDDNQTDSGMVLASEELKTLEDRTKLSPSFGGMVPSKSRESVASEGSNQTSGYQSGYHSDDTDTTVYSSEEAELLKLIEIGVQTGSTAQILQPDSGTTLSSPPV
# How it was run: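 Z′-LYTE FRET assay: 10 μL reactions with 0.5–11.7 ng KDR and 2 μM Tyr 01 peptide in 50 mM HEPES pH 7.5, 10 mM MgCl2, 1 mM EGTA, 0.01% BRIJ-35, 1 h at room temperature. Development Reagent B (1:256) added for 60 min, fluorescence read; IC50 from concentration–inhibition curves.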
IC50 [1],IC50 [2],inhibition at 1 µM [3],inhibition at 1 µM [4],inhibition at 1 µM [5],IC50 [5],IC50 ([3]; read-out: IC50 against BRAF V600E),Structure (SMILES)
< 2000 nM,< 1000 nM,70 to 89%,< 70%,70 to 89%,,,"O=C(Nc1cc(F)c(F)c(C(=O)c2ccc3ncc(N4CCOCC4)nc3c2)c1)Nc1ccc(Cl)c(C(F)(F)F)c1 [Compound C041, 1-(4-chloro-3-(trifluoromethyl)phenyl)-3-(3,4-difluoro-5-(3-morpholinoquinoxaline-6-carbonyl)phenyl)urea]"
< 2000 nM,< 1000 nM,> 89%,70 to 89%,> 89%,,,"O=C(Nc1ccc(F)c(F)c1)Nc1ccc(F)c(C(=O)c2ccc3ncc(N4CCOCC4)nc3c2)c1 [Compound C046, 1-(3,4-difluorophenyl)-3-(4-fluoro-3-(3-morphlinoquinoxaline-6-carbonyl)phenyl)urea]"
< 2000 nM,< 1000 nM,> 89%,> 89%,> 89%,< 100 nM,,"O=C(Nc1ccc(F)cc1)Nc1ccc(F)c(C(=O)c2ccc3ncc(N4CCOCC4)nc3c2)c1 [Compound C053, 1-(4-fluoro-3-(3-morpholinoquinoxaline-6-carbonyl)phenyl)-3-(4-fluorophenyl)urea]"
2000 to 5000 nM,< 1000 nM,> 89%,70 to 89%,70 to 89%,,,"O=C(Nc1ccc(Cl)c(Cl)c1)Nc1ccc(F)c(C(=O)c2ccc3nccnc3c2)c1 [Compound C076, 1-(3,4-dichlorophenyl)-3-(4-fluoro-3-(quinoxaline-6-carbonyl)phenyl)urea]"
> 5000 nM,> 5000 nM,> 89%,> 89%,70 to 89%,,,"O=C(Nc1cncc(F)c1)Nc1ccc(F)c(C(=O)c2ccc3ncc(N4CCOCC4)nc3c2)c1 [Compound C079, 1-(4-fluoro-3-(3-morpholinoquinoxaline-6-carbonyl)phenyl)-3-(5-fluoropyridin-3-yl)urea]"
2000 to 5000 nM,1000 to 5000 nM,> 89%,70 to 89%,70 to 89%,< 100 nM,,"COc1cnc2ccc(C(=O)c3cc(NC(=O)Nc4ccc(F)cc4)ccc3F)cc2n1 [Compound C080, 1-(4-fluoro-3-(3-methoxyquinoxaline-6-carbonyl)phenyl)-3-(4-fluorophenyl)urea]"
> 5000 nM,< 1000 nM,> 89%,> 89%,70 to 89%,,,"O=C(Nc1cncc(Cl)c1)Nc1ccc(F)c(C(=O)c2ccc3ncc(N4CCOCC4)nc3c2)c1 [Compound C081, 1-(5-chloropyridin-3-yl)-3-(4-fluoro-3-(3-morpholinoquinoxaline-6-carbonyl)phenyl)urea]"
2000 to 5000 nM,1000 to 5000 nM,> 89%,< 70%,70 to 89%,,,"COc1cnc2ccc(C(=O)c3cc(NC(=O)Nc4ccc(F)c(F)c4)ccc3F)cc2n1 [Compound C082, 1-(3,4-difluorophenyl)-3-(4-fluoro-3-(3-methoxyquinoxaline-6-carbonyl)phenyl)urea]"
< 2000 nM,< 1000 nM,> 89%,> 89%,> 89%,,,"O=C(Nc1cccc(C(F)(F)F)c1)Nc1ccc(F)c(C(=O)c2ccc3ncc(N4CCNCC4)nc3c2)c1 [Compound C085, 1-(4-fluoro-3-(3-(piperazin-1-yl)quinoxaline-6-carbonyl)phenyl)-3-(3-(trifluoromethyl)phenyl)urea]"
2000 to 5000 nM,< 1000 nM,> 89%,> 89%,> 89%,,,"O=C(Nc1ccc(F)c(F)c1)Nc1ccc(F)c(C(=O)c2ccc3ncc(NCCO)nc3c2)c1 [Compound C087, 1-(3,4-difluorophenyl)-3-(4-fluoro-3-(3-((2-hydroxyethyl)amino)quinoxaline-6-carbonyl)phenyl)urea]"
> 5000 nM,< 1000 nM,> 89%,> 89%,70 to 89%,,,"O=C(Nc1ccnc(C(F)(F)F)c1)Nc1ccc(F)c(C(=O)c2ccc3ncc(N4CCOCC4)nc3c2)c1 [Compound C090, 1-(4-fluoro-3-(3-morpholinoquinoxaline-6-carbonyl)phenyl)-3-(2-(trifluoromethyl)pyridin-4-yl)urea]"
< 2000 nM,1000 to 5000 nM,70 to 89%,< 70%,< 70%,,,"O=C(Nc1cccc(C(=O)c2ccc3nccnc3c2)c1)c1cccc(F)c1 [Compound C105, 3-fluoro-N-(3-(quinoxaline-6-carbonyl)phenyl)benzamide]"
> 5000 nM,< 1000 nM,70 to 89%,< 70%,< 70%,,,"O=C(c1cccc(NC(=O)c2cc(C(F)(F)F)ccc2Cl)c1)c1ccc2nccnc2c1 [Compound C106, 2-chloro-N-(3-(quinoxaline-6-carbonyl)phenyl)-5-(trifluoromethyl)benzamide]"
> 5000 nM,1000 to 5000 nM,> 89%,< 70%,< 70%,,,"O=C(Nc1cccc(C(=O)c2ccc3nccnc3c2)c1)c1ccc(C(F)(F)F)c(Cl)c1 [Compound C107, 3-chloro-N-(3-(quinoxaline-6-carbonyl)phenyl)-4-(trifluoromethyl)benzamide]"
2000 to 5000 nM,> 5000 nM,70 to 89%,< 70%,< 70%,,,"O=C(Nc1cc(F)c(F)c(C(=O)c2ccc3nccnc3c2)c1F)c1cccc(F)c1 [Compound C108, 3-fluoro-N-(2,4,5-trifluoro-3-(quinoxaline-6-carbonyl)phenyl)benzamide]"
2000 to 5000 nM,> 5000 nM,70 to 89%,< 70%,70 to 89%,> 100 nM,> 100 nM,"O=C(Nc1cc(F)c(F)c(C(=O)c2ccc3nccnc3c2)c1F)c1cccc(C(F)(F)F)c1 [Compound C109, N-(2,4,5-trifluoro-3-(quinoxaline-6-carbonyl)phenyl)-3-(trifluoromethyl)benzamide]"
2000 to 5000 nM,> 5000 nM,70 to 89%,70 to 89%,< 70%,,,"O=C(Nc1cccc(C(=O)c2ccc3nccnc3c2)c1)c1cccc(C(F)(F)F)c1 [Compound C110, N-(3-(quinoxaline-6-carbonyl)phenyl)-3-(trifluoromethyl)benzamide]"
< 2000 nM,> 5000 nM,70 to 89%,< 70%,< 70%,,,"O=C(Nc1cccc(C(=O)c2ccc3nccnc3c2)c1)c1ccc(Cl)c(C(F)(F)F)c1 [Compound C111, 4-chloro-N-(3-(quinoxaline-6-carbonyl)phenyl)-3-(trifluoromethyl)benzamide]"
> 5000 nM,> 5000 nM,< 70%,< 70%,< 70%,,,"O=C(Nc1ccc(F)c(C(=O)c2ccc3nccnc3c2)c1Cl)c1ccc(Cl)c(C(F)(F)F)c1 [Compound C112, 4-chloro-N-(2-chloro-4-fluoro-3-(quinoxaline-6-carbonyl)phenyl)-3-(trifluoromethyl)benzamide]"
